Reference: PubChem BioAssay (NCI)
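Results reflect a 48-hour exposure of cells in 96-well plates to compound at five concentrations. At the GI50, growth is halved. At the TGI there is no net growth.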

What was measured:
Test in all cases: NCI-60 cell line screen, 48 h
[1] = test system: SF-295 CNS
[2] = test system: SK-MEL-2 melanoma
[3] = test system: SF-268 CNS
[4] = test system: HT29 colon
[5] = test system: MALME-3M melanoma
[6] = test system: MCF7 breast
[7] = test system: SK-OV-3 ovarian
[8] = test system: A498 renal
[9] = test system: SR leukemia
[10] = test system: KM12 colon
[11] = test system: HOP-92 NSCLC
[12] = test system: HOP-62 NSCLC
[13] = test system: SF-539 CNS
[14] = test system: SK-MEL-28 melanoma
[15] = test system: HS 578T breast
[16] = test system: HCT-15 colon
[17] = test system: SK-MEL-5 melanoma
[18] = test system: HL-60(TB) leukemia
[19] = test system: NCI-H226 lung
[20] = test system: OVCAR-4 ovarian
[21] = test system: HCC-2998 colon
[22] = test system: MDA-MB-435
[23] = test system: SNB-75 CNS
[24] = test system: K-562 leukemia
[25] = test system: OVCAR-8 ovarian
[26] = test system: COLO 205 colon
[27] = test system: UO-31 renal
[28] = test system: NCI-H522 lung
[29] = test system: T-47D breast
[30] = test system: TK-10 renal
[31] = test system: UACC-62 melanoma
[32] = test system: CCRF-CEM leukemia
[33] = test system: RXF 393 renal
[34] = test system: OVCAR-5 ovarian
[35] = test system: OVCAR-3 ovarian
[36] = test system: IGROV1 ovarian
[37] = test system: NCI-H460 lung
[38] = test system: SN12C renal
[39] = test system: SW-620 colon
[40] = test system: RPMI-8226 leukemia
[41] = test system: EKVX NSCLC
[42] = test system: LOX IMVI melanoma
[43] = test system: SNB-19 CNS
[44] = test system: PC-3 prostate
[45] = test system: 786-0 renal
[46] = test system: M14 melanoma
[47] = test system: ACHN renal
[48] = test system: A549 NSCLC
[49] = test system: NCI-H23 lung
[50] = test system: BT-549 breast
[51] = test system: MOLT-4 leukemia
[52] = test system: NCI/ADR-RES ovarian
[53] = test system: HCT-116 colon
[54] = test system: UACC-257 melanoma
[55] = test system: DU-145 prostate
[56] = test system: U251 CNS
[57] = test system: MDA-MB-231 breast

CCN1CCC(Oc2c(C#N)ncc3[nH]c4ncccc4c23)CC1
GI50 [1]: 2.04 µM | TGI [1]: > 50 µM | GI50 [2]: 2.48 µM | TGI [2]: 26.9 µM | GI50 [3]: 16.2 µM | TGI [3]: > 50 µM | GI50 [4]: 10.2 µM | TGI [4]: > 50 µM | GI50 [5]: 22.9 µM | TGI [5]: > 50 µM | GI50 [6]: 0.403 µM | TGI [6]: > 50 µM | GI50 [7]: 3.99 µM | TGI [7]: > 50 µM | GI50 [8]: 0.296 µM | TGI [8]: 10.5 µM | GI50 [9]: 1.32 µM | TGI [9]: 22.3 µM | GI50 [10]: 2.83 µM | TGI [10]: > 50 µM | GI50 [11]: > 50 µM | TGI [11]: > 50 µM | GI50 [12]: 13.2 µM | TGI [12]: > 50 µM | GI50 [13]: 1.34 µM | TGI [13]: 26.2 µM | GI50 [14]: 16.2 µM | TGI [14]: > 50 µM | GI50 [15]: 13.1 µM | TGI [15]: > 50 µM | GI50 [16]: 9.35 µM | TGI [16]: > 50 µM | GI50 [17]: 7.12 µM | TGI [17]: > 50 µM | GI50 [18]: 2.9 µM | TGI [18]: 17.5 µM | GI50 [19]: 16.3 µM | TGI [19]: > 50 µM | GI50 [20]: 7.88 µM | TGI [20]: > 50 µM | GI50 [21]: 20.3 µM | TGI [21]: > 50 µM | GI50 [22]: 1.88 µM | TGI [22]: > 50 µM | GI50 [23]: 12.9 µM | TGI [23]: 29.8 µM | GI50 [24]: 1.75 µM | TGI [24]: > 50 µM | GI50 [25]: 4.77 µM | TGI [25]: > 50 µM | GI50 [26]: 5.72 µM | TGI [26]: 19.5 µM | GI50 [27]: 3.94 µM | TGI [27]: > 50 µM | GI50 [28]: 15 µM | TGI [28]: > 50 µM | GI50 [29]: 26 µM | TGI [29]: > 50 µM | GI50 [30]: 5.21 µM | TGI [30]: 41.7 µM | GI50 [31]: 18.1 µM | TGI [31]: > 50 µM | GI50 [32]: 1.84 µM | TGI [32]: > 50 µM | GI50 [33]: 0.559 µM | TGI [33]: 4.16 µM | GI50 [34]: 19.3 µM | TGI [34]: > 50 µM | GI50 [35]: 2.55 µM | TGI [35]: > 50 µM | GI50 [36]: 15.6 µM | TGI [36]: > 50 µM | GI50 [37]: 7.33 µM | TGI [37]: > 50 µM | GI50 [38]: 14.2 µM | TGI [38]: > 50 µM | GI50 [39]: 12.2 µM | TGI [39]: > 50 µM | GI50 [40]: 11 µM | TGI [40]: > 50 µM | GI50 [41]: 14.5 µM | TGI [41]: > 50 µM | GI50 [42]: 5.72 µM | TGI [42]: > 50 µM | GI50 [43]: 14.7 µM | TGI [43]: > 50 µM | GI50 [44]: 21 µM | TGI [44]: > 50 µM | GI50 [45]: 1.71 µM | TGI [45]: > 50 µM | GI50 [46]: 0.357 µM | TGI [46]: > 50 µM | GI50 [47]: 0.466 µM | TGI [47]: > 50 µM | GI50 [48]: 14.1 µM | TGI [48]: > 50 µM | GI50 [49]: 3.25 µM | TGI [49]: > 50 µM | GI50 [50]: 1.96 µM | TGI [50]: 21 µM | GI50 [51]: 1.67 µM | TGI [51]: 21.2 µM | GI50 [52]: 2.78 µM | TGI [52]: > 50 µM | GI50 [53]: 7.2 µM | TGI [53]: > 50 µM | GI50 [54]: 19.9 µM | TGI [54]: > 50 µM | GI50 [55]: 10.9 µM | TGI [55]: > 50 µM | GI50 [56]: 15.7 µM | TGI [56]: > 50 µM | GI50 [57]: 21.5 µM | TGI [57]: > 50 µM
